logFC data for 2 compounds are collected here from US20240269139A1, “COMPOUNDS FOR TARGETED PROTEIN DEGRADATION OF KINASES” (DANA-FARBER CANCER INSTITUTE, INC., priority 2020, published 2024).

Test [1] deals with protein kinases (human kinome) (Homo sapiens, UniProt P54819). Type of test: cell-based. As to conditions: AK2 (P54819); experiment wp084.
For test [2], the target named is T1, protein kinases (human kinome) (Homo sapiens, UniProt Q9UIG0).
T1 sequence (Q9UIG0 1-1483): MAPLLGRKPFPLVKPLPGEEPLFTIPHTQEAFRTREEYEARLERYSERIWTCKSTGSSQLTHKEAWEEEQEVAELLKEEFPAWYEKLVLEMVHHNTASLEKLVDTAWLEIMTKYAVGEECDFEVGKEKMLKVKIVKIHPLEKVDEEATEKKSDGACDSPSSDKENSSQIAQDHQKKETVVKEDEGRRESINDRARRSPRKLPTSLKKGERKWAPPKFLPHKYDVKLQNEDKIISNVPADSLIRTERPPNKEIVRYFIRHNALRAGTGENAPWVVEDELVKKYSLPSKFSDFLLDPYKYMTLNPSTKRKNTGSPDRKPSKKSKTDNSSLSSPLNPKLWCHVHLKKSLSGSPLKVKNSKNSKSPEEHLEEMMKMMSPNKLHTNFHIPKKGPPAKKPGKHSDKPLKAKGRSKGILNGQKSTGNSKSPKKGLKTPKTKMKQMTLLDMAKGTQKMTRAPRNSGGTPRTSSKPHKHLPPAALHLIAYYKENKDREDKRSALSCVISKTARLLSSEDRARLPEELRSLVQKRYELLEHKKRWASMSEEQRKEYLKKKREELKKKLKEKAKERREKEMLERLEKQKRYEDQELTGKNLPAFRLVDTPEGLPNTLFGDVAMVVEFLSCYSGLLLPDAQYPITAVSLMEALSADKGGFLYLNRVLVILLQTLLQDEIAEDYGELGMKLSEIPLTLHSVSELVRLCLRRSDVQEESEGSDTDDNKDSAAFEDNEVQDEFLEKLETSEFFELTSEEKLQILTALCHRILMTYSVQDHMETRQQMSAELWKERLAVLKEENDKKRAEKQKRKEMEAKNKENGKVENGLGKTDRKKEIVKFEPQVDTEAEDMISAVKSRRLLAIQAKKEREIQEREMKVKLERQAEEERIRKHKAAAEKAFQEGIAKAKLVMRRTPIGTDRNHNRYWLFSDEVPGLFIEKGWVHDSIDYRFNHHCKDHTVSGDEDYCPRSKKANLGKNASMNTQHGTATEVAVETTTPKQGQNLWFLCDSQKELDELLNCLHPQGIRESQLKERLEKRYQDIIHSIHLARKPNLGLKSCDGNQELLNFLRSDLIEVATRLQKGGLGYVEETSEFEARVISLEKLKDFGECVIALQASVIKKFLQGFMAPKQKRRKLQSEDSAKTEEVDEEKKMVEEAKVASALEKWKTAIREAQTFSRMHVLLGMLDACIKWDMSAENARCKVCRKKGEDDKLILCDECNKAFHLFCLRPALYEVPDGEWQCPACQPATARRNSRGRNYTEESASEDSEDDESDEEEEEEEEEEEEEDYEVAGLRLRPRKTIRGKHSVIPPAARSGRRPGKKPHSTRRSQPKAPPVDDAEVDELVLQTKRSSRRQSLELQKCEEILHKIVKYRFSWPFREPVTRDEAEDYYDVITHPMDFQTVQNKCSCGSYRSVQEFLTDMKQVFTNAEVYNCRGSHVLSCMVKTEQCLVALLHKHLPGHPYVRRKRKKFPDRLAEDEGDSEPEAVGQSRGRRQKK
Format: cell-based. The conditions noted are these: BAZ1B (Q9UIG0); experiment wp084.

For the compound `CN(C)C(=O)c1cc2cnc(Nc3ccc(N4CCN(CCCCNC(=O)COc5cccc6c5C(=O)N(C5CCC(=O)NC5=O)C6=O)CC4)cn3)nc2n1C1CCCC1` (stereo not shown) [BSJ.04.132], the logFC in test [1] was −0.3323; in test [2], −0.3222.
On the same counts, the results for `CC(=O)c1c(C)c2cnc(Nc3ccc(N4CCN(CCOCCOCCOCCNC(=O)COc5cccc6c5C(=O)N(C5CCC(=O)NC5=O)C6=O)CC4)cn3)nc2n(C2CCCC2)c1=O` (stereo not shown) [BSJ.03.123] are −0.395 and −0.3532.
